Active and inactive are the calls of the source. No cut-off for these calls is given here.
Key:
HepG2 [1] = test: Antitumor activity against HepG2 cells xenografted nude mouse at 9 mg/kg, ip twice per day on every third day for four cycles; type: functional, organism-based; set-up: dose 9 mg/kg; settings: Homo sapiens
HepG2 [2] = test: Cytotoxicity against HepG2 cells; type: functional; settings: Homo sapiens
HepG2 [3] = test: Down regulation of cyclin D1 expression in HepG2 cells; type: functional, cell-based; settings: Homo sapiens
[4] = Inhibition of NF-kappaB-mediated gene transcription in HepG2 cells by luciferase reporter gene assay; type: cell-based; settings: Homo sapiens
[5] = Inhibition of CRE-mediated gene transcription in HepG2 cells by luciferase reporter gene assay; type: cell-based; settings: Homo sapiens
PANC-1 = test: Cytotoxicity against PANC1 cells; type: functional; settings: Homo sapiens
Mus musculus [6] = test: Reduction of body weight in HepG2 xenografted nude mouse at 9 mg/kg, ip after 9 days; type: ADME, organism-based; set-up: dose 9 mg/kg, route intraperitoneal; scale not given: the % may be the effect or the level left; settings: in vivo, 216 h
Mus musculus [7] = test: Reduction of body weight in HepG2 xenografted nude mouse at 9 mg/kg, ip after 10 days; type: ADME, organism-based; set-up: dose 9 mg/kg, route intraperitoneal; scale not given: the % may be the effect or the level left; settings: in vivo, 240 h

Row | SMILES | Activity (HepG2 [1]) | GI50 (HepG2 [2]) | Activity (HepG2 [3]) | IC50 [4] | IC50 [5] | GI50 (PANC-1) | Activity (Mus musculus [6]) | Activity (Mus musculus [7])
1 | COc1ccc2c3c(c4cc(OC)c(O)cc4c2c1)CN1CCC[C@@H]1C3 | inactive | 13 nM | Dose-dependent effect | 11 nM | 135 nM | 11 nM | – | –
2 | COc1cc2c(cc1OC)-c1cc(OC)c(OC)cc1C1CN3CCC[C@H]3C=C21 (some centres not stated) | – | – | – | > 300 nM | > 300 nM | – | – | –
3 | COc1cc2c3c(c4cc(OC)c(OC)cc4c2cc1OC)[C@H](O)[C@@H]1CCCN1C3 | – | – | – | – | 1070 nM | – | 15% | 15%
4 | COc1cc2c3c(c4cc(OC)c(OC)cc4c2cc1OC)[C@@H](O)[C@@H]1CCCN1C3 | – | – | – | 315 nM | > 300 nM | – | – | –
5 | COc1cc2c3c(c4cc(OC)c(OC)cc4c2cc1O)CN1CCC[C@H]1[C@H]3O | – | > 600 nM | – | 322 nM | > 300 nM | – | – | –
6 | COc1ccc2c3c(c4cc(OC)c(O)cc4c2c1)C[N+]1([O-])CCC[C@H]1[C@H]3O (some centres not stated) [TYLOPHORIDICINE C] | – | 98 nM | Dose-dependent effect | 600 nM | > 1000 nM | 67 nM | – | –
7 | COc1cc2c3c(c4ccc(O)cc4c2cc1OC)[C@H](O)[C@@H]1CCCN1C3 [TYLOPHORIDICINE E] | – | > 5000 nM | Dose-dependent effect | > 1000 nM | > 1000 nM | > 5000 nM | – | –
8 | COc1ccc2c3c(c4cc(OC)c(OC)cc4c2c1)C[N+]1([O-])CCC[C@H]1[C@@H]3O (some centres not stated) [TYLOPHORIDICINE F] | – | 71 nM | Dose-dependent effect | 367 nM | > 1000 nM | 63 nM | – | –
9 | COc1ccc2c3c(c4cc(OC)c(O)cc4c2c1)CN1CCC[C@H]1[C@H]3O [TYLOPHORINIDINE] | Active | 11 nM | Dose-dependent effect | 10 nM | 95 nM | 7 nM | – | –
10 | COc1ccc2c3c(c4cc(OC)c(OC)cc4c2c1)CN1CCC[C@H]1[C@@H]3O [TYLOPHORININE] | – | 20 nM | Dose-dependent effect | 12 nM | 80 nM | 11 nM | – | –

Reference: ChEMBL document CHEMBL1140007, “Structure-activity studies of phenanthroindolizidine alkaloids as potential antitumor agents” (Bioorg Med Chem Lett, 2007)
